Where two headings read alike, the source gives them in different places.

The test system of one data set is intracellular HBV DNA. The data set is described as follows: Real-time PCR for intracellular HBV DNA in HepAD38 cells. Type of data set: cell-based. The following applies: 65 hours treatment.
A further data set addresses Protein (Hepatitis B virus genotype D subtype ayw, UniProt P03146). In words: Protein inhibition rate / EC50 (Table 1, no method described). The data set is classed as biochemical.
In the next data set the test system is HepAD38 cells. The data set is described as follows: Cell viability assay (EZ-Cytox), cytotoxicity. The data set is classed as cell-based. The following applies: 65 hours. How it is done: (§1) HepAD38 cells were cultured for 2 days in Dulbecco's Modified Eagle's medium (Welgene, LM001-05) supplemented with 10% FBS without tetracycline. […] After 65 hours of treatment, viability was measured using EZ-Cytox cell viability assay kit (Daeil Lab Service) according to the manufacturer's instructions. The absorbance was measured at 450 nm using a spectrophotometer (Spark, Tecan).

A short description of data set [1]: Cell viability assay (EZ-Cytox), cytotoxicity. Type of data set: cell-based. As to conditions: human, HepAD38 cells; for viability at 65 h, 100 µM: read-out: Cytotoxicity % Livability (@100 μM). The method, then: as §1
[2] abbreviates: Hepatitis B virus, HePAD38, 65 h.

Sequence of Protein (P03146 whole entry): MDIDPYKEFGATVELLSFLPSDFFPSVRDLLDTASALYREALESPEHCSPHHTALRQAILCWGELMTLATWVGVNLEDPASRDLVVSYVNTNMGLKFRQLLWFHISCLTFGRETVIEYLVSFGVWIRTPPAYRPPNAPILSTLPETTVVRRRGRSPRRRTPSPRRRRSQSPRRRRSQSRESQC

Consider “1-((4-bromo-1H-pyrazol-3-yl)methyl)-3-(3-chloro-4-fluorophenyl)-1-(4-methoxyphenyl)urea [Example 61]”, for which the IC50 in the data set with intracellular HBV DNA (read-out: IC50) amounted to 0.502 µM. Further, at Protein, the EC50 came to 4.4 µM. Also, the “Protein % inhibition rate (@30 μM)” value on Protein (@30 μM) worked out at 81.8%. Besides, in the data set on HepAD38 cells, the CC50 worked out at 98.8 µM and the “Cytotoxicity % Livability (@100 μM)” value stood at 40.8%.

As to “3-(3-chloro-4-fluorophenyl)-1-((1-(hydroxymethyl)-5-(trifluoromethyl)-1H-pyrazol-3-yl)methyl)-1-(6-methoxypyridin-3-yl)urea [Example 79]”, in the data set on intracellular HBV DNA (read-out: IC50), the IC50 was 0.019 µM. For the same compound, in the data set with HepAD38 cells, the “Cytotoxicity % Livability (@100 μM)” value is 18.5%.

As to `COc1ncc(N(Cc2n[nH]c(C(F)F)c2Br)C(=O)Nc2ccc(F)c(Cl)c2)cn1` [Example 81, 1-((4-bromo-5-(difluoromethyl)-1H-pyrazol-3-yl)methyl)-3-(3-chloro-4-fluorophenyl)-1-(2-methoxypyrimidin-5-yl)urea], the IC50 with intracellular HBV DNA was determined as 0.0145 µM. Further, in the data set on HepAD38 cells, the CC50 was greater than 100 µM and the “Cytotoxicity % Livability (@100 μM)” value stood at 76.0%.

In the case of `COc1ncc(N(Cc2n[nH]c(C(F)F)c2Br)C(=O)Nc2ccc(F)c(Cl)c2)cn1` [Example 98, 1-((4-bromo-5-(difluoromethyl)-1H-pyrazol-3-yl)methyl)-3-(3-chloro-4-fluorophenyl)-1-(2-methoxypyrimidin-5-yl)urea], in the data set with intracellular HBV DNA (setting [2]), the half-maximal inhibitory concentration (IC50) amounted to 0.018 µM. Also, the cytotoxic concentration (CC50) at 65 h in data set [1] is greater than 66 µM. Also, the “Cytotoxicity % Livability (@100 μM)” value with HepAD38 cells amounted to 30.1%.

As to `O=C(O)c1ccc(N(Cc2n[nH]c3c2CCCC3)C(=O)Nc2ccc(F)c(Cl)c2)cc1` [Example 131, 4-(3-(3-chloro-4-fluorophenyl)-1-((4,5,6,7-tetrahydro-1H-indazol-3-yl)methyl)ureido)benzoic acid], in the data set on intracellular HBV DNA (setting [2]), the IC50 is greater than 1.1 µM. On Protein, the concentration giving a half-maximal response (EC50) came to 3.8 µM and the inhibition at 30 µM amounted to 94.7%. In data set [1], the cytotoxic concentration (CC50) at 65 h was greater than 100 µM and the viability at 65 h, 100 µM was 100%.

Take `O=C(Nc1ccc(F)c(Cl)c1)N(Cc1n[nH]c2c1CCCC2)c1ccon1` [Example 132, 3-(3-chloro-4-fluorophenyl)-1-(isoxazol-3-yl)-1-((4,5,6,7-tetrahydro-1H-indazol-3-yl)methyl)urea]: the midpoint of inhibition with intracellular HBV DNA (setting [2]), the IC50, lay at 0.055 µM. Moreover, at Protein, it took 5.3 µM to reach a half-maximal effect (EC50) and 30 µM produced 86.9% inhibition. In data set [1], the CC50 at 65 h was greater than 100 µM and the viability at 65 h, 100 µM was determined as 81.9%.

In the data set on intracellular HBV DNA (setting [2]), `O=C(Nc1ccc(F)c(Cl)c1)N(Cc1n[nH]c2c1CCCC2)c1nncs1` [Example 133, 3-(3-chloro-4-fluorophenyl)-1-((4,5,6,7-tetrahydro-1H-indazol-3-yl)methyl)-1-(1,3,4-thiadiazol-2-yl)urea] had an IC50 of 0.11 µM. At Protein, the inhibition at 30 µM turned out to be 5%. Further, in data set [1], the midpoint of cytotoxicity, the CC50 at 65 h, lay at 74.2 µM and the viability at 65 h, 100 µM was 4.3%.

Compound `O=C(Nc1ccc(F)c(Cl)c1)N(Cc1n[nH]c2c1CCC2)c1ccon1` [Example 134, 3-(3-chloro-4-fluorophenyl)-1-(isoxazol-3-yl)-1-((1,4,5,6-tetrahydrocyclopenta[c]pyrazol-3-yl)methyl)urea] displayed an IC50 in the data set with intracellular HBV DNA (setting [2]) of 0.069 µM. Besides, on Protein, the EC50 was found to be 3.5 µM and the inhibition at 30 µM was 84.5%. In addition, in data set [1], the CC50 at 65 h was determined as 70.3 µM and the viability at 65 h, 100 µM stood at 6.5%.

For the origin of these results see patent US20250009742A1 (priority 2021, published 2025).
